Source: article PMC9403976, “Elucidating the path to Plasmodium prolyl-tRNA synthetase inhibitors that overcome halofuginone resistance” (Nature Communications, 2022)
“And” between values parts separate entries of the source, which are not always exact repeats. Equal values may be shown once. Read-outs that look alike come from different tables or passages of the source.

Assays:
[1] = test system: halofuginone-induced P. falciparum (elevated proline homeostasis); test: P. falciparum ABS growth assay, SYBR Green, 72 h, halofuginone-induced parasites; assay type: cell-based, Plasmodium falciparum; settings: for parasite growth, replicate wells (Fig 1b): Halofuginone-Induced
Summary of the method: (§1)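 Dd2-derived P. falciparum lines (HFGR-I, halofuginone-induced) at 1% parasitemia and 1% hematocrit in RPMI + 0.5% Albumax were exposed to compounds in triplicate dose-response for 72 h. Growth was read as SYBR Green 1 fluorescence, with 10 μM dihydroartemisinin as kill control and compound-free wells as growth control.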

PfcProRS = target: T1, PfcProRS (Plasmodium falciparum, UniProt Q8I5R7); assay type: binding; settings: for dose-response signal (normalized), SI Fig 8: single replicates
T1 construct: made in house; host or cells: E. coli SoluBL-21

P. falciparum Dd2-2D4 = test: P. falciparum asexual blood stage (ABS) growth assay, SYBR Green, 72 h, wild-type parasites; assay type: cell-based, Plasmodium falciparum; settings: for parasite growth, replicate wells (Fig 1b): Dd2-2D4
Experimental: Parasites were maintained under standard culture conditions as described previously[56],[57]. […] The P. falciparum Dd2 cell lines used in this study (Dd2-2D4, halofuginone-induced, and HFGR-I) have previously undergone whole genome sequencing in our labs.
This assay was performed as previously described[8]. In short, P. falciparum erythrocytic-stage parasites at 1% parasitemia and 1% hematocrit in RPMI + 0.5% Albumax were seeded at 40 μL/well in 384-well plates with test compounds in triplicate, dose-response format with 10 μM dihydroartemisinin as a kill-control and blank (no compound) wells as a growth-control. […] After 72 h, growth was quantified by measuring fluorescence (Molecular Devices SpectraMax iD5) following SYBR Green 1 staining. Data were analyzed in Excel and plotted in PRISM (V. 8.4.3–9.1.0, GraphPad).

[2] = test system: HFGR-I P. falciparum (elevated proline homeostasis and PfcProRS^L482H); test: P. falciparum ABS growth assay, SYBR Green, 72 h, HFGR-I parasites; assay type: cell-based, Plasmodium falciparum; settings: HFGR-I
Summary of the method: as §1

T1 sequence (Q8I5R7 249-746): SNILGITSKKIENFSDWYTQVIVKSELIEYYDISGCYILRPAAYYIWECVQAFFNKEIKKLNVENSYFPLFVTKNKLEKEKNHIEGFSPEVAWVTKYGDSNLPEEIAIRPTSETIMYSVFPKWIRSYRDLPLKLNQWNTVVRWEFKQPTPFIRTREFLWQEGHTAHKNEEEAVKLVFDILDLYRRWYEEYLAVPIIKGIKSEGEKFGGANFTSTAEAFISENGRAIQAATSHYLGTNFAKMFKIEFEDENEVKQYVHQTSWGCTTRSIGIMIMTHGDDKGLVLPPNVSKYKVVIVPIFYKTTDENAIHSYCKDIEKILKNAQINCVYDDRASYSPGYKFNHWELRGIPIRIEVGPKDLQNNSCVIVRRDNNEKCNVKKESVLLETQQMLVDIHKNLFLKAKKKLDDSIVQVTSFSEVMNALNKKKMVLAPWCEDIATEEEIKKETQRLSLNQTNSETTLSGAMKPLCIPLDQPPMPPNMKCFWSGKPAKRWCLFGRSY

## O=C(NC1Cc2ccccc2C1)c1nccnc1NC(=O)C1CCCCC1 [compound 2, reference compound]
[1]; Log[inhibitor] (M) -5.000
  parasite growth, replicate wells (Fig 1b): 1.00E+00
  dose-response value, Replicates 1-3 (SI Fig 2e): 1.0
[1]; Log[inhibitor] (M) -5.408
  parasite growth, replicate wells (Fig 1b): 2.00E+00
  dose-response value, Replicates 1-3 (SI Fig 2e): 2.0
[1]; Log[inhibitor] (M) -5.816
  parasite growth, replicate wells (Fig 1b): 2.40E+01 (2×) and 2.50E+01
[1]; Log[inhibitor] (M) -6.222
  parasite growth, replicate wells (Fig 1b): 9.70E+01 and 1.00E+02 and 9.90E+01
[1]; Log[inhibitor] (M) -6.638
  parasite growth, replicate wells (Fig 1b): 1.00E+02 and 1.02E+02 and 1.04E+02
[1]; Log[inhibitor] (M) -7.046
  parasite growth, replicate wells (Fig 1b): 1.00E+02 and 9.10E+01 and 1.03E+02
[1]; Log[inhibitor] (M) -7.450
  parasite growth, replicate wells (Fig 1b): 9.40E+01 and 9.70E+01 and 9.80E+01
[1]; Log[inhibitor] (M) -7.854
  parasite growth, replicate wells (Fig 1b): 9.70E+01 (2×) and 1.00E+02
[1]; Log[inhibitor] (M) -8.260
  parasite growth, replicate wells (Fig 1b): 1.00E+02 and 9.20E+01 and 9.80E+01
[1]; Log[inhibitor] (M) -8.699
  parasite growth, replicate wells (Fig 1b): 9.70E+01 (2×) and 9.80E+01
[1]; Log[inhibitor] (M) -9.000
  parasite growth, replicate wells (Fig 1b): 1.00E+02 and 9.60E+01 and 9.80E+01
[1]; Log[inhibitor] (M) -9.488
  parasite growth, replicate wells (Fig 1b): 9.80E+01 (2×) and 9.90E+01
PfcProRS; Log[inhibitor] (M) -6.301
  dose-response signal (normalized), SI Fig 8: 1.92E-01 and 4.91E-02 and 9.09E-02 and 1.28E-01 and 2.12E-01 and 1.32E-01
PfcProRS; Log[inhibitor] (M) -6.602
  dose-response signal (normalized), SI Fig 8: 2.13E-01 and 1.64E-01 and 1.25E-01 and 4.31E-02 and 9.86E-02 and 8.65E-02
PfcProRS; Log[inhibitor] (M) -6.904
  dose-response signal (normalized), SI Fig 8: 1.14E-01 and 8.81E-02 and 8.34E-02 and 1.41E-01 and 2.01E-01 and 1.23E-01
PfcProRS; Log[inhibitor] (M) -7.205
  dose-response signal (normalized), SI Fig 8: 2.07E-01 and 2.31E-01 and 1.85E-01 and 3.09E-01 and 3.02E-01 and 1.82E-01
PfcProRS; Log[inhibitor] (M) -7.506
  dose-response signal (normalized), SI Fig 8: 4.98E-01 and 4.91E-01 and 5.79E-01 and 3.60E-01 and 6.32E-01 and 4.92E-01
PfcProRS; Log[inhibitor] (M) -7.796
  dose-response signal (normalized), SI Fig 8: 7.43E-01 and 8.09E-01 and 7.32E-01 and 8.58E-01 and 7.28E-01 and 7.94E-01
PfcProRS; Log[inhibitor] (M) -8.097
  dose-response signal (normalized), SI Fig 8: 9.39E-01 and 7.78E-01 and 8.55E-01 and 1.05E+00 and 7.40E-01 and 9.07E-01
PfcProRS; Log[inhibitor] (M) -8.407
  dose-response signal (normalized), SI Fig 8: 8.45E-01 and 1.01E+00 and 1.04E+00 and 1.10E+00 and 1.00E+00 and 9.65E-01
PfcProRS; Log[inhibitor] (M) -8.708
  dose-response signal (normalized), SI Fig 8: 1.03E+00 and 1.01E+00 and 9.69E-01 and 1.00E+00 and 9.25E-01 and 9.85E-01
PfcProRS; Log[inhibitor] (M) -9.018
  dose-response signal (normalized), SI Fig 8: 1.01E+00 and 9.85E-01 and 9.47E-01 and 1.02E+00 (2×) and 9.53E-01
PfcProRS; Log[inhibitor] (M) -9.319
  dose-response signal (normalized), SI Fig 8: 1.08E+00 and 9.09E-01 and 9.54E-01 and 9.77E-01 and 1.04E+00 and 9.33E-01
PfcProRS; Log[inhibitor] (M) -9.620
  dose-response signal (normalized), SI Fig 8: 9.48E-01 and 9.58E-01 and 1.04E+00 and 1.08E+00 and 1.01E+00 and 9.21E-01
PfcProRS; Log[inhibitor] (M) -9.921
  dose-response signal (normalized), SI Fig 8: 1.02E+00 and 1.01E+00 and 9.29E-01 and 9.34E-01 and 1.07E+00 and 9.91E-01
PfcProRS; Log[inhibitor] (M) -10.097
  dose-response signal (normalized), SI Fig 8: 9.97E-01 and 1.11E+00 (2×) and 9.85E-01 and 1.06E+00 and 9.77E-01
PfcProRS; Log[inhibitor] (M) -10.585
  dose-response signal (normalized), SI Fig 8: 1.09E+00 and 8.10E-01 and 1.01E+00 and 1.14E+00 and 1.16E+00 and 1.07E+00
PfcProRS; SI Fig 16a, values on -log scale
  PfcProRS -- best Kd: 8.144
P. falciparum Dd2-2D4; Log[inhibitor] (M) -5.000
  parasite growth, replicate wells (Fig 1b): 1.00E+00 (2×) and 0.00E+00
P. falciparum Dd2-2D4; Log[inhibitor] (M) -5.301
  parasite growth, replicate wells (Fig 1b): 0.00E+00 (2×) and -2.00E+00
P. falciparum Dd2-2D4; Log[inhibitor] (M) -5.602
  parasite growth, replicate wells (Fig 1b): 1.00E+00 and -1.00E+00 and 2.00E+00
P. falciparum Dd2-2D4; Log[inhibitor] (M) -5.903
  parasite growth, replicate wells (Fig 1b): 1.70E+01 and 1.20E+01 and 1.60E+01
P. falciparum Dd2-2D4; Log[inhibitor] (M) -6.204
  parasite growth, replicate wells (Fig 1b): 4.80E+01 (2×) and 4.40E+01
P. falciparum Dd2-2D4; Log[inhibitor] (M) -6.505
  parasite growth, replicate wells (Fig 1b): 8.30E+01 (2×) and 8.20E+01
P. falciparum Dd2-2D4; Log[inhibitor] (M) -6.806
  parasite growth, replicate wells (Fig 1b): 1.04E+02 and 1.00E+02 and 1.01E+02
P. falciparum Dd2-2D4; Log[inhibitor] (M) -7.107
  parasite growth, replicate wells (Fig 1b): 8.30E+01 and 8.10E+01 and 8.20E+01
P. falciparum Dd2-2D4; Log[inhibitor] (M) -7.408
  parasite growth, replicate wells (Fig 1b): 8.20E+01 and 7.90E+01 and 8.10E+01
P. falciparum Dd2-2D4; Log[inhibitor] (M) -7.709
  parasite growth, replicate wells (Fig 1b): 9.90E+01 and 8.20E+01 and 1.00E+02
P. falciparum Dd2-2D4; Log[inhibitor] (M) -8.010
  parasite growth, replicate wells (Fig 1b): 9.50E+01 and 1.05E+02 and 1.00E+02
P. falciparum Dd2-2D4; Log[inhibitor] (M) -8.311
  parasite growth, replicate wells (Fig 1b): 8.90E+01 and 1.00E+02 and 9.90E+01
P. falciparum Dd2-2D4; Plasmodium falciparum, DD2, SI Fig 16b, values on -log scale, read-out: ABS - Dd2-2D4 (converted)
  EC50: 596 nM
[2]; Log[inhibitor] (M) -5.000
  parasite growth, replicate wells (Fig 1b): 6.00E+00 (2×) and 7.00E+00
[2]; Log[inhibitor] (M) -5.408
  parasite growth, replicate wells (Fig 1b): 7.00E+00 (2×) and 8.00E+00
[2]; Log[inhibitor] (M) -5.816
  parasite growth, replicate wells (Fig 1b): 1.20E+01 (2×) and 1.40E+01
[2]; Log[inhibitor] (M) -6.222
  parasite growth, replicate wells (Fig 1b): 6.90E+01 (2×) and 7.10E+01
[2]; Log[inhibitor] (M) -6.638
  parasite growth, replicate wells (Fig 1b): 8.90E+01 and 9.90E+01 and 9.60E+01
[2]; Log[inhibitor] (M) -7.046
  parasite growth, replicate wells (Fig 1b): 9.70E+01 and 1.01E+02 (2×)
[2]; Log[inhibitor] (M) -7.450
  parasite growth, replicate wells (Fig 1b): 8.80E+01 and 9.60E+01 and 1.00E+02
[2]; Log[inhibitor] (M) -7.854
  parasite growth, replicate wells (Fig 1b): 1.06E+02 and 1.07E+02 and 9.90E+01
